In patent publication US8703451B2, “Method for the production of free carboxylic acids” (priority 2008, dated 2014):

Legend:
[1] = tested on: Ralstonia eutropha PHB-4 (reclassified as Cupriavidus necator, DSMZ 541); type: cell-based; details: 1, 5 and 10% (w/v) TOA; shake flasks, 24 h, 30° C., 140 rpm
Method: 2-Hydroxyisobutyric-acid-producing Ralstonia eutropha PHB-4 (reclassified as Cupriavidus necator, DSMZ 541), which have been transformed with the plasmid pBBR1MCS-2::icmA-icmB, SEQ ID No. 1, were grown as two 50 ml cultures in a shaking incubator under standard conditions (30° C., 140 rpm, 20 h) in LB medium.
From this, for the biomass production, 5×10 ml were inoculated over into 40 ml of modified mineral salt medium (in accordance with Schlegel et al., 1961) and incubated for 10 h under standard conditions
The biomass cultures were centrifuged off and resuspended in 10 ml of modified mineral salt medium.
Using the resuspensions, 5 flasks of a Ramos shaking incubator (Respiration Activity Monitoring System) were inoculated. The flasks were filled with modified mineral salt medium (addition of 1 g/l of yeast extract and 15 g/l of fructose) with vitamin B12 (60 mg/l). 3 flasks additionally comprised 1, 5 and 10% (w/v) of trioctylamine (TOA).
The flasks were incubated for 24 h under standard conditions (30° C., 140 rpm).
After 0, 15 and 24 hours, samples were taken and CFU (OD), pH, and 2HIB concentration in the broth were determined.
For the CFU determination, dilution series of the broths were prepared. The dilutions were plated out onto LB agar plates with 300 mg/l of Kanamycin and incubated for 24 h at 30° C. A 4-fold determination of the dilutions 10^−8 and 10^−9 was carried out.

[2] = tested on: Ralstonia eutropha PHB-4 (reclassified as Cupriavidus necator, DSMZ 541); type: cell-based; details: 0.5%, 1%, 5% and 10% (w/v) TOA; over a period of 20 hours (fermentation time 46-65 hours)
Method: Biocompatibility of TOA (trioctylamine) with Ralstonia eutropha Cultures of Ralstonia eutropha PHB-4 (reclassified as Cupriavidus necator, DSMZ 541) transformed with the plasmid: pBBR1MCS-2::icmA-icmB with SEQ ID No. 1 were fermented on a 400 ml scale in a standard medium for 46 hours to an OD (optical density at 600 nm) of ca. 30, which corresponds to a CFU (colony formed units) of 1×10^11 per ml, under standard conditions (30° C.; pH 6.8; rpm 250-750; pO2 20%).
After a fermentation time of 48 hours, 0.5%, 1%, 5% and 10% (w/v) trioctylamine (TOA) were added under sterile conditions. After a further 6 and 20 hours the CFU were determined.
To ascertain the CFU, dilution series of the broths were prepared. The dilutions were plated out onto agar plates and incubated for 24 hours at 30° C.
The values are summarized in the table below, the CFU values are standardized to 1 ml of fermentation broth.

## CCCCCCCCN(CCCCCCCC)CCCCCCCC [TOA, trioctylamine]
[1]
  Influence on cell growth (CFU, FIG. 1): not influenced
[2]
  Change of CFU in the presence of TOA: increased further
